Experimental findings from article PMC9289467, “A Novel Multifunctional 5,6-Dimethoxy-Indanone-Chalcone-Carbamate Hybrids Alleviates Cognitive Decline in Alzheimer’s Disease by Dual Inhibition of Acetylcholinesterase and Inflammation” (Frontiers in Aging Neuroscience, 2022) are described below.

Assay [1] has as its system C3 within astrocytes. In words: C3 and GFAP co-immunostaining (A1 astrocyte marker). It is filed as in vivo. Particulars: AP5-treated vs APP/PS1 mice. How it is done:
APP/PS1 mice of ages 6 months were randomly divided into vehicle (APP/PS1, n = 10) and treatment groups (AP5, n = 10), which were intragastrically administered with AP5 (40 mg/kg) once daily for consecutive 5 months. AP5 was dissolved in distilled water containing 1% sodium carboxymethyl cellulose.
The fixed hemibrains were paraffin-embedded and sectioned in the coronal plane. The slices were deparaffinized with xylene and rehydrated by a series of gradient alcohols. Antigen retrieval through microwave boiling was performed with 10 mM sodium citrate solution at pH 6.0. The slices were cooled down to room temperature and then rinsed in PBS solution. […]
(1:100, BAF2655, R&D, Minneapolis, MN, USA). […] For the quantification of Aβ plaque-associated microglia and astrocyte, Iba1- and GFAP-immunopositive cells around plaques were counted. On each slide, ten plaques were randomly determined and the microglia (nuclei) in the immediate vicinity (two times the plaque diameter) of each plaque were counted. For colocalization of PSD95 and synaptophysin, images were analyzed with the puncta analyzer plugin with a minimum pixel specification of 4 in Image Jand thresholding was consistent for every image. […]
anti-synaptophysin (1:1000, 67864-1-lg, Proteintech) overnight at 4°C. […] Densitometric analysis was performed using Quantity One software (Bio-Rad, Berkeley, CA, USA). […]

For assay [2], the target named is T1, AChE-induced Aβ40 fibril formation (Homo sapiens, UniProt P22303).
T1 construct: purchased Roche (AChE); Invitrogen (Aβ40) R005282 (AChE); 03-136 (Aβ40)
Put plainly: ThT kinetics of AChE-induced Aβ40 fibril formation. The assay is classed as biochemical. Particulars: co-incubation of AP5 and Aβ40 with AChE, 24-h kinetic ThT assay. The method, then: The effects of AP5 on Aβ fibril formation and pre-formed Aβ fibrils disaggregation were determined using a previously described method of Thioflavin T (ThT, T3516, Sigma Aldrich, St. Louis, MO, United States) fluorometry ([Jan et al., 2010]).
Supplementary materials and methods … ...1 […]
Supplementary Figure 1 … .....7
Supplementary Figure 2 … .....7
Supplementary materials and methods
Prepations ofspecimen for pharmacokinetics analysis
24 h afterdosing. Brains were collected at0, 0.25, 0.5,2, 4,8 and 24 h after administration.Plasma extractions were performed by adding 90 μL methanol and 2 μL internalstandard letrozole (500 ng/mL) to a30 µL plasma sample. […]
Then 90 μL methanol and 2 μL letrozolewere added to 30 µl brainhomogenates. The samples were vortexed for 3 min and centrifuged 15 min at25,000 g.The plasma and brainhomogenate were analyzed by UPLC-TSQ/MS (Thermo Fisher Scientific, Waltham, MA, USA). […]
To study the kinetics of Aβ-AChE fibril complex formation, 10 μM Aβ was mixed with AChE (R005282, Roche, Basel, Switzerland) and different concentrations AP5 and incubated with 10 μM ThT and 50 mM glycine-NaOH (pH 8.5) at 37°C, the ThT fluorescence was continually measured for 24 h at 30 min intervals. […] Fluorescence emission at485 nm was measured on a Spectra MAX GeminiXS fluorometerat an excitation wavelength of 450 nm. […]

T1 sequence (P22303 32-614): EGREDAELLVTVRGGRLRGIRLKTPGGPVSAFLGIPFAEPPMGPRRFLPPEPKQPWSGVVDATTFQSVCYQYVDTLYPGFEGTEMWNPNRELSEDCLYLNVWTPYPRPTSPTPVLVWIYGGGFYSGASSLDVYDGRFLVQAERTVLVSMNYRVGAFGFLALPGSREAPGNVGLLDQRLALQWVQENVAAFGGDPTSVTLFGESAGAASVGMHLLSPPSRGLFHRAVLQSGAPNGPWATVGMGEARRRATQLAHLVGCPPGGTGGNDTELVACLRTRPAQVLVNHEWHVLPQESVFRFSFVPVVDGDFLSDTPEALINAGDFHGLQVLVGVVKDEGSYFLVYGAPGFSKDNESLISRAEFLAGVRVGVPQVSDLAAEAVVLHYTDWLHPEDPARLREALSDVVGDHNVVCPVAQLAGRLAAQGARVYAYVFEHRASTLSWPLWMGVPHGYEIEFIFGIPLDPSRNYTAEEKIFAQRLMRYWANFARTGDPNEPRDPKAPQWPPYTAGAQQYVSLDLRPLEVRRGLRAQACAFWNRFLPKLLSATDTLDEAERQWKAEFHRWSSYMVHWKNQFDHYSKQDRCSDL

For `CCN(C)C(=O)Oc1cccc(/C=C2\Cc3cc(OC)c(OC)cc3C2=O)c1` [AP5, (E)-3-((5,6-dimethoxy-1-oxo-1,3-dihydro-2H-inden-2-ylidene)-methyl)phenylethyl(methyl)carbamate], in assay [1], the “C3-positive area within the astrocytes” value was “markedly reduced”. In addition, the “ThT intensity, AChE-induced Aβ40 fibril formation” value in assay [2] is “substantially lowered the ThT intensity in a dose-dependent manner”.
